# From patent publication US9216173B2, “2-Pyridyl carboxamide-containing spleen tyrosine kinase (SYK) inhibitors” (Merck Sharp & Dohme Corp., priority 2011, dated 2015)
# Biological target: T1, recombinant human GST-SYK (Homo sapiens, UniProt P43405)
# T1 construct: purchased Carna Biosciences 08-176
# Assay: Homogeneous Time-Resolved Fluorescence (HTRF) assay for the recombinant human Syk enzyme
# Type: biochemical
# Settings: GST-hSYK 5 pM, ATP 25 μM, 10-dose titration 10 μM to 0.508 nM; read-out: IC50
# Outline: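 GST-hSYK fusion phosphorylates a peptide for 45 min at room temperature. Quenched with EDTA buffer containing 2 nM Eu-anti-phosphotyrosine antibody and 70 nM SA-APC. HTRF signal read after 30 min.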
row,IC50 [nM],SMILES
1,0.53,"Cc1ccc(Nc2cc(N[C@@H]3CCCC[C@@H]3N)cnc2C(N)=O)nc1C [Example 1.6, 5-{[(1R,2S)-2-aminocyclohexyl]amino}-3-[(5,6-dimethylpyridin-2-yl)amino)pyridine-2-carboxamide]"
2,2900,"Cc1cc(C)nc(Nc2cc(N)cnc2C(N)=O)c1 [Example 9, 5-amino-3-[(4,6-dimethylpyridin-2-yl)amino]pyridine-2-carboxamide]"

# Same assay, conditions: GST-hSYK 5 pM, ATP 25 μM, 10-dose titration 10 μM to 0.508 nM; read-out: rhSYK Activity (IC50 rating)
row,SMILES,IC50 [nM]
1,"NC(=O)c1ncc(N[C@@H]2CCCC[C@@H]2N)cc1Nc1cccc(-c2ccc3c(c2)OCCO3)n1 [Example 1.16, 5-{[(1R,2S)-2-aminocyclohexyl]amino}-3-{[6-(2,3-dihydro-1,4-benzodioxin-6-yl)pyridin-2-yl]amino}pyridine-2-carboxamide]",< 10
2,"NC(=O)c1ncc(N[C@@H]2CCCC[C@@H]2N)cc1Nc1ccn(-c2ccccn2)n1 [Example 1.81, 5-{[(1R,2S)-2-aminocyclohexyl]amino}-3-[(1-pyridin-2-yl-1H-pyrazol-3-yl)amino]pyridine-2-carboxamide]",< 10
3,"Cc1cc(C)nc(Nc2cc(NCC(N)Cc3ccccc3)cnc2C(N)=O)c1 (stereo not drawn) [Example 2.12, 5-[(2-amino-3-phenylpropyl)amino]-3-[(4,6-dimethylpyridin-2-yl)amino]pyridine-2-carboxamide]",10 to 100
4,"NC(=O)c1ncc(N[C@@H]2CCCC[C@@H]2N)cc1Nc1ccn(-c2ccc(Cl)cc2)n1 [Example 1.63, 5-{[(1R,2S)-2-aminocyclohexyl]amino}-3-{[1-(4-chlorophenyl)-1H-pyrazol-3-yl]amino}pyridine-2-carboxamide]",< 10
5,"Cc1ccc(Nc2cc(N[C@@H]3CCCC[C@@H]3N)cnc2C(N)=O)nc1C [Example 1.6, 5-{[(1R,2S)-2-aminocyclohexyl]amino}-3-[(5,6-dimethylpyridin-2-yl)amino)pyridine-2-carboxamide]",< 10
6,"Cc1cc(C)nc(Nc2cc(NCCN)cnc2C(N)=O)c1 [Example 1.5, 5-[(2-aminoethyl)amino]-3-[(4,6-dimethylpyridin-2-yl)amino]pyridine-2-carboxamide]",< 10
7,"Cc1nc(Nc2cc(N[C@@H]3CCCC[C@@H]3N)cnc2C(N)=O)ccc1C(=O)O [Example 16, 6-[(5-{[(1R,2S)-2-aminocyclohexyl]amino}-2-carbamoylpyridin-3-yl)amino]-2-methylpyridine-3-carboxylic acid]",< 10
8,"CCc1cccc(Nc2cc(NC(CC)CN)cnc2C(N)=O)n1 (stereo not drawn) [Example 1.97, 5-{[1-(aminomethyl)propyl]amino}-3-[(6-ethylpyridin-2-yl)amino]pyridine-2-carboxamide]",< 10
9,"Cc1cc(Nc2cc(N[C@@H]3CCCC[C@@H]3N)cnc2C(N)=O)nc(-c2cnn(C)c2)c1 [Example 1.110, 5-{[(1R,2S)-2-aminocyclohexyl]amino}-3-{[4-methyl-6-(1-methyl-1H-pyrazol-4-yl)pyridin-2-yl]amino}pyridine-2-carboxamide]",< 10
10,"Cc1nc(Nc2cc(N[C@@H]3CCCC[C@@H]3N)cnc2C(N)=O)ccc1Br [Example 1.31, 5-{[(1R,2S)-2-aminocyclohexyl]amino}-3-[(5-bromo-6-methylpyridin-2-yl)amino]pyridine-2-carboxamide]",< 10
11,"NC(=O)c1ncc(N[C@@H]2CCCC[C@@H]2N)cc1Nc1cccc(-c2cn(Cc3ccccc3)nn2)n1 [Example 1.101, 5-{[(1R,2S)-2-aminocyclohexyl]amino}-3-{[6-(1-benzyl-1H-1,2,3-triazol-4-yl)pyridin-2-yl]amino}pyridine-2-carboxamide]",< 10
12,"Cc1cccc(Nc2cc(NCCN)cnc2C(N)=O)n1 [Example 1.4, 5-[(2-aminoethyl)amino]-3-[(6-methylpyridin-2-yl)amino]pyridine-2-carboxamide]",10 to 100
13,"Cc1cc(Nc2cc(N[C@@H]3CCCC[C@@H]3N)cnc2C(N)=O)nc(C)n1 [Example 1.125, 5-{[(1R,2S)-2-aminocyclohexyl]amino}-3-[(2,6-dimethylpyrimidin-4-yl)amino]pyridine-2-carboxamide]",< 10
14,"Cc1cc(C)nc(Nc2cc(NCC(N)C(=O)N(C)C)cnc2C(N)=O)c1 (stereo not drawn) [Example 2.9, 5-{[2-amino-3-(dimethylamino)-3-oxopropyl]amino}-3-[(4,6-dimethylpyridin-2-yl)amino]pyridine-2-carboxamide]",100 to 1000
15,"Cc1nc(Nc2cc(N[C@@H]3CCCC[C@@H]3N)cnc2C(N)=O)ccc1C(=O)N(C)C [Example 17, 5-{[(1R,2S)-2-aminocyclohexyl]amino}-3-{[5-(dimethylcarbamoyl)-6-methylpyridin-2-yl]amino}pyridine-2-carboxamide]",10 to 100
16,"Cc1ccc(-n2nc(Nc3cc(N[C@@H]4CCCC[C@@H]4N)cnc3C(N)=O)cc2C)cc1 [Example 1.79, 5-{[(1R,2S)-2-aminocyclohexyl]amino}-3-{[5-methyl-1-(4-methylphenyl)-1H-pyrazol-3-yl]amino}pyridine-2-carboxamide]",< 10
17,"NC(=O)c1ncc(N[C@@H]2CCCC[C@@H]2N)cc1Nc1ccnc(-n2nccn2)n1 [Example 1.122, 5-{[(1R,2S)-2-aminocyclohexyl]amino}-3-{[2-(2H-1,2,3-triazol-2-yl)pyrimidin-4-yl]amino}pyridine-2-carboxamide]",< 10
18,"Cc1cc(C)nc(Nc2cc(NS(=O)(=O)CCN)cnc2C(N)=O)c1 [Example 19, 5-{[(2-aminoethyl)sulfonyl]amino}-3-[(4,6-dimethylpyridin-2-yl)amino]pyridine-2-carboxamide]",100 to 1000
19,"Cc1cc(C)nc(Nc2cc(N)cnc2C(N)=O)c1 [Example 9, 5-amino-3-[(4,6-dimethylpyridin-2-yl)amino]pyridine-2-carboxamide]",1000 to 10000
20,"Cc1cc(C)nc(Nc2cc(NC(CN)c3ccccc3)cnc2C(N)=O)c1 (stereo not drawn) [Example 1.21, 5-[(2-amino-1-phenylethyl)amino]-3-[(4,6-dimethylpyridin-2-yl)amino]pyridine-2-carboxamide]",< 10
21,"Cc1nc(Nc2cc(N[C@@H]3CCCC[C@@H]3N)cnc2C(N)=O)ccc1-n1nccn1 [Example 1.67, 5-{[(1R,2S)-2-aminocyclohexyl]amino}-3-{[6-methyl-5-(2H-1,2,3-triazol-2-yl)pyridin-2-yl]amino}pyridine-2-carboxamide]",< 10
22,"NC(=O)c1ncc(N[C@@H]2CCCC[C@@H]2N)cc1Nc1ccc2nccn2n1 [Example 1.17, 5-{[(1R,2S)-2-aminocyclohexyl]amino}-3-(imidazo[1,2-b]pyridazin-6-ylamino)pyridine-2-carboxamide]",< 10
23,"NC(=O)c1ncc(N[C@@H]2CCCC[C@@H]2N)cc1Nc1cccc(-c2ccccc2)n1 [Example 1.28, 5-{[(1R,2S)-2-aminocyclohexyl]amino}-3-[(6-phenylpyridin-2-yl)amino]pyridine-2-carboxamide]",< 10
24,"NC(=O)c1ncc(N[C@@H]2CCCC[C@@H]2N)cc1Nc1cccc(CN2CCNCC2)n1 [Example 8, 5-{[(1R,2S)-2-aminocyclohexyl]amino}-3-{[6-(piperazin-1-ylmethyl)pyridin-2-yl]amino}pyridine-2-carboxamide]",100 to 1000
25,"Cc1nc(Nc2cc(N[C@@H]3CCCC[C@@H]3N)cnc2C(N)=O)ccc1-c1cnn(C)c1 [Example 1.11, 5-{[(1R,2S)-2-aminocyclohexyl]amino}-3-{[6-methyl-5-(1-methyl-1H-pyrazol-4-yl)pyridin-2-yl]amino}pyridine-2-carboxamide]",< 10

# Further lines, results first:
row,IC50 [nM],SMILES
1,< 10,"Cc1cc(OC(C)C)cc(Nc2cc(N[C@@H]3CCCC[C@@H]3N)cnc2C(N)=O)n1 [Example 5.2, 5-{[(1R,2S)-2-aminocyclohexyl]amino}-3-{[6-methyl-4-(1-methylethoxy)pyridin-2-yl]amino}pyridine-2-carboxamide]"
2,< 10,"Cc1cc(-c2cnn(C)c2)cc(Nc2cc(N[C@@H]3CCCC[C@@H]3N)cnc2C(N)=O)n1 [Example 4.3, 5-{[(1R,2S)-2-aminocyclohexyl]amino}-3-{[6-methyl-4-(1-methyl-1H-pyrazol-4-yl)pyridin-2-yl]amino}pyridine-2-carboxamide]"
3,< 10,"Cc1nc(Nc2cc(N[C@@H]3CCCC[C@@H]3N)cnc2C(N)=O)ccc1-c1ccc2c(c1)n(C)c(=O)n2C [Example 3.31, 5-{[(1R,2S)-2-aminocyclohexyl]amino}-3-{[5-(1,3-dimethyl-2-oxo-2,3-dihydro-1H-benzimidazol-5-yl)-6-methylpyridin-2-yl]amino}pyridine-2-carboxamide]"
4,< 10,"COc1ccc(-c2ccc(Nc3cc(N[C@@H]4CCCC[C@@H]4N)cnc3C(N)=O)nc2C)cc1OC [Example 3.4, 5-{[(1R,2S)-2-aminocyclohexyl]amino}-3-{[5-(3,4-dimethoxyphenyl)-6-methylpyridin-2-yl]amino}pyridine-2-carboxamide]"
5,< 10,"Cc1nc(Nc2cc(N[C@@H]3CCCC[C@@H]3N)cnc2C(N)=O)ccc1-c1ccc(-n2nccn2)cc1 [Example 3.15, 5-{[(1R,2S)-2-aminocyclohexyl]amino}-3-({6-methyl-5-[4-(2H-1,2,3-triazol-2-yl)phenyl]pyridin-2-yl}amino)pyridine-2-carboxamide]"
6,10 to 100,"CC(=O)NCC(N)CNc1cnc(C(N)=O)c(Nc2cc(C)cc(C)n2)c1 (stereo not drawn) [Example 6.1, 5-{[3-(acetylamino)-2-aminopropyl]amino}-3-[(4,6-dimethylpyridin-2-yl)amino]pyridine-2-carboxamide]"
7,< 10,"Cc1nc(Nc2cc(N[C@@H]3CCCC[C@@H]3N)cnc2C(N)=O)ccc1-c1ccc2nnn(C)c2c1 [Example 3.9, 5-{[(1R,2S)-2-aminocyclohexyl]amino}-3-{[6-methyl-5-(1-methyl-1H-benzotriazol-6-yl)pyridin-2-yl]amino}pyridine-2-carboxamide]"
8,< 10,"Cc1nc(Nc2cc(N[C@@H]3CCCC[C@@H]3N)cnc2C(N)=O)ccc1-c1ccc(-c2nccn2C)cc1 [Example 3.29, 5-{[(1R,2S)-2-aminocyclohexyl]amino}-3-({6-methyl-5-[4-(1-methyl-1H-imidazol-2-yl)phenyl]pyridin-2-yl}amino)pyridine-2-carboxamide]"
9,< 10,"Cc1nc(Nc2cc(N[C@@H]3CCCC[C@@H]3N)cnc2C(N)=O)ccc1-c1cccc(N(C)S(C)(=O)=O)c1 [Example 3.19, 5-{[(1R,2S)-2-aminocyclohexyl]amino}-3-[(6-methyl-5-{3-[methyl(methylsulfonyl)amino]phenyl}pyridin-2-yl)amino]pyridine-2-carboxamide]"
